The text below walks through data of patent publication US10696692B2, “Amido-benzyl sulfone and sulfoxide derivates” (Forma TM, LLC, priority 2012, dated 2020).

pIC50: −log10 of the molar value. Read-outs that look alike come from different tables or passages of the source.

One experiment addresses NAMPT (Homo sapiens (Human), UniProt P43490). Nature of the experiment: Assay 1: Biochemical Inhibition Assay (NAMPT enzymatic reaction, NMN quantified by mass spectrometry).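 Also: recombinant His-tagged human NAMPT preincubated with compound 15 min, then reacted 30 min at rt with 1 µM NAM, 100 µM PRPP, 2.5 mM ATP, NMN product read by RapidFire MS, normalized to L-Cystathionine internal standard.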 Conditions: read-out: Biochemical (IC50).
For a further experiment, the system named is A2780 cells. In words: Assay 2: In-Vitro Cell Proliferation Assay (A2780 cells, SRB readout, 72 hours).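 Also: viable cells counted via sulforhodamine B staining, absorbance at 570 nm, after 72 h exposure at 37 °C, DMSO 0.1% as control, media-only background subtracted.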 It counts as cell-based. Conditions: A2780 cells, 72 hours, SRB, read-out: Cell Proliferation (IC50).

Chain of NAMPT (P43490 whole entry): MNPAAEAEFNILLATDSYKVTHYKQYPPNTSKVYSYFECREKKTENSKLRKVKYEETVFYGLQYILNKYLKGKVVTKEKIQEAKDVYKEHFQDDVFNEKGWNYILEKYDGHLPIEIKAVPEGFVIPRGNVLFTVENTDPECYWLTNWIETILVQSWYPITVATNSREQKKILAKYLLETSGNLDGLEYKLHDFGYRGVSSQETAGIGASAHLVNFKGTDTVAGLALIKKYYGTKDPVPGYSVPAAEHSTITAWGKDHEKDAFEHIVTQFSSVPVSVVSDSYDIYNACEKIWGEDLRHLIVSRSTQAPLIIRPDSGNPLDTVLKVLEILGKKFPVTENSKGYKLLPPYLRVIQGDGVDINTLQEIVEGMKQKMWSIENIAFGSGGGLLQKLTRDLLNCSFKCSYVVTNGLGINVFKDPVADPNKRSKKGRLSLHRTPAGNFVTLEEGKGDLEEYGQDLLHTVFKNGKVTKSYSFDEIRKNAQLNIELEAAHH

As to `O=C(NCc1ccc(S(=O)(=O)N2CCC(N3CCCC3)CC2)cc1)c1cc2ccncc2o1` [Example 157, Furo[2,3-c]pyridine-2-carboxylic acid 4-(4-pyrrolidin-1-yl-piperidine-1-sulfonyl)-benzylamide], the pIC50 is 7.75 at NAMPT and 7.83 with A2780 cells (Homo sapiens, A2780, 72 h).

As for `O=C(NCc1ccc(S(=O)(=O)N2CCOC3CNCC32)cc1)c1ccc2nccn2c1` (stereo not drawn) [Example 327, N-[[4-(3,4a,5,6,7,7a-hexahydro-2H-pyrrolo[3,4-b][1,4]oxazin-4-ylsulfonyl)phenyl]methyl] imidazo[1,2-a]pyridine-6-carboxamide], the pIC50 at NAMPT was 5.89; with A2780 cells (Homo sapiens, A2780, 72 h), 5.70.

Consider `CC(C)N1CCC(S(=O)(=O)c2ccc(CNC(=O)c3cc4cnccc4[nH]3)cc2)CC1` [Example 340, N-[[4-[(1-isopropyl-4-piperidyl)sulfonyl]phenyl]methyl]-1H-pyrrolo[3,2-c]pyridine-2-carboxamide], for which the pIC50 on NAMPT is 7.05; in the experiment on A2780 cells (Homo sapiens, A2780, 72 h), 7.58.

Take `O=C(NCc1ccc(S(=O)(=O)N2CCN(CC(F)(F)F)CC2)cc1)c1ccc2nccn2c1` [Example 25, Imidazo[1,2-a]pyridine-6-carboxylic acid 4-[4-(2,2,2-trifluoro-ethyl)-piperazine-1-sulfonyl]-benzylamide]: the pIC50 at NAMPT is 7.62; with A2780 cells (Homo sapiens, A2780, 72 h), 7.98.

Turning to `CN1CCC2(C1)CN(S(=O)(=O)c1ccc(CNC(=O)c3cnc4[nH]ncc4c3)cc1)C2` [Example 283, N-[[4-[(7-methyl-2,7-diazaspiro[3.4]octan-2-yl)sulfonyl]phenyl]methyl]-1H-pyrazolo[3,4-b]pyridine-5-carboxamide], the pIC50 at NAMPT is 6.70; in the experiment on A2780 cells (Homo sapiens, A2780, 72 h) it was 6.89.

As for `CN(C)C(=O)C1CN(S(=O)(=O)c2ccc(CNC(=O)c3ccc4nccn4c3)cc2)C1` [Example 244, N-[[4-[3-(dimethylcarbamoyl)azetidin-1-yl]sulfonylphenyl]methyl] imidazo[1,2-a]pyridine-6-carboxamide], the pIC50 is 7.85 at NAMPT and 7.84 in the experiment on A2780 cells (Homo sapiens, A2780, 72 h).

As for `O=C(NCc1ccc(S(=O)(=O)C2CCN(CC(F)(F)F)CC2)cc1)c1cnc2[nH]ncc2c1` [Example 208, N-[[4-[[1-(2,2,2-trifluoroethyl)-4-piperidyl]sulfonyl]phenyl]methyl]-1H-pyrazolo[3,4-b]pyridine-5-carboxamide], the pIC50 is 7.32 on NAMPT and 7.97 in the experiment with A2780 cells (Homo sapiens, A2780, 72 h).

On to `CN1CCN(C(=O)C2CN(S(=O)(=O)c3ccc(CNC(=O)c4ccc5nccn5c4)cc3)C2)CC1` [Example 246, N-[[4-[3-(4-methylpiperazine-1-carbonyl)azetidin-1-yl]sulfonylphenyl]methyl] imidazo[1,2-a]pyridine-6-carboxamide], for which the pIC50 on NAMPT was 8.15; in the experiment on A2780 cells (Homo sapiens, A2780, 72 h), 7.56.

Regarding `CCC(=O)N1CCC(S(=O)(=O)c2ccc(CNC(=O)c3cc4ccncc4o3)cc2)CC1` [Example 312, N-[[4-[(1-propanoyl-4-piperidyl)sulfonyl]phenyl]methyl]furo[2,3-c]pyridine-2-carboxamide], the pIC50 on NAMPT is 6.95; in the experiment on A2780 cells (Homo sapiens, A2780, 72 h), 7.31.

Consider `O=C(NCc1ccc(S(=O)(=O)N2CC3(CCOCC3)C2)cc1)c1cc2ccncc2o1` [Example 263, N-[[4-(7-oxa-2-azaspiro[3.5]nonan-2-ylsulfonyl)phenyl]methyl]furo [2,3-c]pyridine-2-carboxamide], for which the pIC50 is 7.74 at NAMPT and 7.63 with A2780 cells (Homo sapiens, A2780, 72 h).

For the compound `CC(C)(C)OC(=O)N1CCCCC12CCCN(S(=O)(=O)c1ccc(CNC(=O)c3ccc4nccn4c3)cc1)C2` (racemic) [Example 123], the pIC50 at NAMPT is 7.43; in the experiment on A2780 cells (Homo sapiens, A2780, 72 h), 7.76.

On to `O=C(NCc1ccc(S(=O)(=O)N2CCC(O)CC2)cc1)c1cc2ccncc2o1` [Example 38, Furo[2,3-c]pyridine-2-carboxylic acid 4-(4-hydroxy-piperidine-1-sulfonyl)-benzylamide], for which the pIC50 was 7.58 at NAMPT and 7.21 in the experiment on A2780 cells (Homo sapiens, A2780, 72 h).

Turning to `CC(=O)N1CCC(S(=O)(=O)c2ccc(CNC(=O)c3cnc4nccn4c3)cc2)CC1` [Example 229, N-[[4-[(1-acetyl-4-piperidyl)sulfonyl]phenyl]methyl]imidazo[1,2-a]pyrimidine-6-carboxamide], the pIC50 on NAMPT is 8.29; in the experiment with A2780 cells (Homo sapiens, A2780, 72 h), 6.28.

Regarding `CC(C)CN1CCC([S+]([O-])c2ccc(CNC(=O)c3cnc4nccn4c3)cc2)CC1` (stereo not drawn) [Example 188, N-[[4-[(1-isobutyl-4-piperidyl)sulfinyl]phenyl]methyl]imidazo[1,2-a]pyrimidine-6-carboxamide], the pIC50 at NAMPT is 8.11; in the experiment on A2780 cells (Homo sapiens, A2780, 72 h), 7.51.

For the compound `O=C(NCc1ccc(S(=O)(=O)N2CCC3(CCCN3)C2)cc1)c1ccc2nccn2c1` (stereo not drawn) [Example 255, N-[[4-(1,7-diazaspiro[4.4]nonan-7-sulfonyl)phenyl]methyl] imidazo[1,2-a]pyridine-6-carboxamide], the pIC50 was 7.24 at NAMPT and 7.44 in the experiment with A2780 cells (Homo sapiens, A2780, 72 h).

In the case of `O=C(NCc1ccc(S(=O)(=O)N2CCN(C3CCOCC3)CC2)cc1)c1cc2ccncc2o1` [Example 170, Furo[2,3-c]pyridine-2-carboxylic acid 4-[4-(tetrahydro-pyran-4-yl)-piperazine-1-sulfonyl]-benzylamide], the pIC50 was 7.52 at NAMPT and 7.92 in the experiment with A2780 cells (Homo sapiens, A2780, 72 h).

Turning to `CN1CC2CCN(S(=O)(=O)c3ccc(CNC(=O)c4ccc5nccn5c4)cc3)C2C1` (racemic) [Example 143, cis-Imidazo[1,2-a]pyridine-6-carboxylic acid 4-(5-methyl-hexahydro-pyrrolo[3,4-b]pyrrole-1-sulfonyl)-benzylamide], the pIC50 at NAMPT is 7.00; with A2780 cells (Homo sapiens, A2780, 72 h), 7.69.

For the compound `CC(C)(C)OC(=O)NC1CCN(S(=O)(=O)c2ccc(CNC(=O)c3ccc4nccn4c3)cc2)CC1` [Example 55, [1-(4-{[(lmodazo[1,2-a]pyridine-6-carbonyl)-amino]-methyl}-benzenesulfonyl)-piperidin-4-yl]-carbamic acid tert-butyl ester], the pIC50 at NAMPT is 8.11; with A2780 cells (Homo sapiens, A2780, 72 h) it was 8.37.

In the case of `O=C(NCc1ccc(S(=O)(=O)N2CC(F)(F)C2)cc1)c1ccc2nccn2c1` [Example 239, N-[[4-(3,3-difluoroazetidin-1-yl)sulfonylphenyl]methyl] imidazo[1,2-a]pyridine-6-carboxamide], the pIC50 at NAMPT is 7.48; with A2780 cells (Homo sapiens, A2780, 72 h), 7.45.

Consider `O=C(NCc1ccc(S(=O)(=O)N2CCC23COC3)cc1)c1cnc2[nH]ncc2c1` [Example 285, N-[[4-(6-oxa-1-azaspiro[3.3]heptan-1-ylsulfonyl)phenyl]methyl]-1H-pyrazolo[3,4-b]pyridine-5-carboxamide], for which the pIC50 is 6.69 at NAMPT and 5.70 in the experiment on A2780 cells (Homo sapiens, A2780, 72 h).

Take `CC(C)(C)OC(=O)N1CCC2(CC1)CCN(S(=O)(=O)c1ccc(CNC(=O)c3ccc4nccn4c3)cc1)CC2` [Example 121, 9-(4-{[(Imidazo[1,2-a]pyridine-6-carbonyl)-amino]-methyl}-benzenesulfonyl)-3,9-diaza-spiro[5.5]undecane-3-carboxylic acid tert-butyl ester]: the pIC50 on NAMPT was 8.24; in the experiment with A2780 cells (Homo sapiens, A2780, 72 h), 8.96.

As for `CC(=O)N1CCC(S(=O)(=O)c2ccc(CNC(=O)c3cnc4nccn4c3)cc2)CC1` [Example 86, Imidazo[1,2-a]pyrimidine-6-carboxylic acid 4-(1-acetyl-piperidine-4-sulfonyl)-benzylamide], the pIC50 on NAMPT is 8.29; with A2780 cells it was 6.28.

Take `O=C(NCc1ccc(S(=O)(=O)C2CCNCC2)cc1)c1cnc2[nH]ncc2c1` [Example 203, N-[[4-(4-piperidylsulfonyl)phenyl]methyl]-1H-pyrazolo[3,4-b]pyridine-5-carboxamide]: the pIC50 is 6.17 on NAMPT and 6.14 in the experiment on A2780 cells (Homo sapiens, A2780, 72 h).

Turning to `O=C(NCc1ccc(S(=O)(=O)[C@H]2CCOC2)cc1)c1cnc2[nH]ncc2c1` [Example 231, N-[[4-[(3S)-tetrahydrofuran-3-yl]sulfonylphenyl]methyl]-1H-pyrazolo[3,4-b]pyridine-5-carboxamide], the pIC50 is 6.50 at NAMPT and 6.01 in the experiment on A2780 cells (Homo sapiens, A2780, 72 h).

Regarding `O=C(NCc1ccc(S(=O)(=O)N2CCC[C@H](O)C2)cc1)c1cc2ccncc2o1` [Example 150, Furo[2,3-c]pyridine-2-carboxylic acid 4-((S)-3-hydroxy-piperidine-1-sulfonyl)-benzylamide], the pIC50 was 7.50 at NAMPT and 7.34 in the experiment with A2780 cells (Homo sapiens, A2780, 72 h).

With `O=C(NCc1ccc(S(=O)(=O)C2CCN(C3COC3)CC2)cc1)c1cnc2nccn2c1` [Example 118, Imidazo[1,2-a]pyrimidine-6-carboxylic acid 4-(1-oxetan-3-yl-piperidine-4-sulfonyl)-benzylamide], the pIC50 is 8.39 on NAMPT and 6.92 with A2780 cells (Homo sapiens, A2780, 72 h).

As to `O=C(NCc1ccc(S(=O)(=O)N2CCOC3CNCC32)cc1)c1ccc2nccn2c1` (stereo not drawn) [Example 335, N-[[4-(3,4a,5,6,7,7a-hexahydro-2H-pyrrolo[3,4-b][1,4]oxazin-4-ylsulfonyl)phenyl)methyl] imidazo[1,2-a]pyridine-6-carboxamide], the pIC50 on NAMPT was 6.02; with A2780 cells it was 5.70.

Turning to `O=C(NCc1ccc(S(=O)(=O)N2CCN(CCO)CC2)cc1)c1ccc2nccn2c1` [Example 94, Imidazo[1,2-a]pyridine-6-carboxylic acid 4-[4-(2-hydroxy-ethyl)-piperazine-1-sulfonyl]-benzylamide], the pIC50 on NAMPT was 7.12; with A2780 cells (Homo sapiens, A2780, 72 h), 7.54.

Turning to `O=C(NCc1ccc(S(=O)(=O)N2CCCC3(CCCCN3)C2)cc1)c1ccc2nccn2c1` (stereo not drawn) [Example 326, N-[[4-(1,8-diazaspiro[5.5]undecan-8-ylsulfonyl)phenyl]methyl] imidazo[1,2-a]pyridine-6-carboxamide], the pIC50 on NAMPT is 6.97; with A2780 cells, 7.22.

Turning to `O=C(NCc1ccc(S(=O)(=O)[C@H]2CCOC2)cc1)c1cc2ccncc2o1` [Example 230, N-[[4-[(3S)-tetrahydrofuran-3-yl]sulfonylphenyl]methyl]furo [2,3-c]pyridine-2-carboxamide], the pIC50 on NAMPT was 7.13; with A2780 cells (Homo sapiens, A2780, 72 h), 6.61.
